# Test results taken from paper PMC7930822, “Phase I Trial to Evaluate the Tolerance, Pharmacokinetics and Efficacy of the Broad-Spectrum ErbB Family Inhibitor Larotinib Mesylate in Patients With Advanced Solid Tumors” (Frontiers in Pharmacology, 2021).
# Counter-ions that a name gives are not always drawn.
# What was measured:
# beagle dogs [1] = test system: beagle dogs; design: method as in data not published; conditions: ref data not published, cited from earlier work
# [2] = molecular target: Bruton’s tyrosine kinase (BTK); design: method as in data not published; conditions: ref data not published; cited from earlier work
# P-glycoprotein = conditions: cited from earlier work
# beagle dogs [3] = conditions: dog, in vivo
# Description: (§1) Animal toxicology studies of larotinib mesylate were conducted in both Sprague–Dawley rats and beagle dogs. […] The maximal tolerable doses (MTDs) were 20 and 25 mg/kg in Sprague–Dawley rats and beagle dogs, respectively.
# (§2) According to the guidance for clinical trials of antitumor agents published by the Center for Drug Evaluation and Research in China, for cytotoxic antitumor agents, the initial dose in a phase I study can be calculated as 1/10 of the MTD in rodents or 1/6 of the MTD in non-rodent animals ([CFDA, 2012]). For non-cytotoxic antitumor agents, because of their relatively lower toxicity, the initial dose can be set higher. According to the reported preclinical results for larotinib mesylate, the MTD in Sprague–Dawley rats translated to a human equivalent dose of 192 mg/d according to body surface area (calculated by 60 kg body weight), for which 1/10 is 19.2 mg/d ([FDA, 2005]). […] Taking the above results for the toxicology, preclinical pharmacology and pharmacodynamics, and drug specifications (10, 50 and 100 mg) of larotinib mesylate into account, we calculated a recommended starting dose of 50 mg larotinib mesylate for a phase I, first-in-human clinical study, lower than human equivalent 1/6 MTD translated from beagle dogs and near the human equivalent effective dose translated from tumor-bearing mice. […]
# Sprague–Dawley rats = conditions: rat, in vivo
# Description: as §1, §2
# [4] = molecular target: interleukin-1 receptor-associated kinase 1 (IRAK1); design: method as in data not published; conditions: ref data not published; cited from earlier work
# [5] = test system: patients with advanced solid tumors; test: tumor evaluation by RECIST version 1.1; type: in vivo, human; conditions: for Disease control, n (%): CR, PR and SD; for Objective response, n (%): complete plus partial response
# Description: Tumor evaluation was performed at screening, the end of cycle 1, and every two cycles of subsequent treatment according to RECIST version 1.1. The disease control rate (DCR) (including CR, PR and SD), objective remission rate (ORR) (including CR and PR), and progression-free survival (PFS) were also evaluated.
# Blood samples for EGFR mutation site analyses were collected in screening, cycle 1 day 29, cycle 3 days 29 and every 8 weeks for the subsequent follow-up. Second-generation sequencing method was used to detect the amplification and mutation of the related tumor genes.
# CYP3A4 = test system: CYP3A4; design: method as in data not published; conditions: in vitro studies; ref data not published; cited from earlier work
# [6] = test system: EGFR with the L858R mutation; design: method as in data not published; conditions: ref data not published; cited from earlier work
# HER2 = test system: HER2; design: method as in data not published; conditions: ref data not published; cited from earlier work
# HER4 = test system: HER4; design: method as in data not published; conditions: ref data not published; cited from earlier work
# [7] = molecular target: receptor-interacting serine/threonine-protein kinase 2 (RIPK2); design: method as in data not published; conditions: ref data not published; cited from earlier work
# EGFR (T790M) = test system: EGFR (T790M); design: method as in data not published; conditions: ref data not published; cited from earlier work
structure (smiles),measurement,setting,value
COc1cc2ncnc(Nc3ccc(F)c(Cl)c3)c2cc1OCCCN1C[C@@H]2OCCO[C@@H]2C1 [larotinib mesylate],lowest observed adverse effect level (LOAEL),beagle dogs [1]; daily administration,5 mg/kg
same,maximal tolerable dose (MTD),beagle dogs [1],25 mg/kg
same,IC50,[2],196 nM
same,P-glycoprotein substrate,P-glycoprotein,substrate of P-glycoprotein
same,human equivalent dose of MTD,beagle dogs [3],810 mg/day
same,human equivalent dose of MTD,Sprague–Dawley rats,192 mg/day
same,IC50,[4],167 nM
same,"Complete response, n (%)",[5]; 50 mg (n = 3),0 (0)
same,"Partial response, n (%)",[5]; 50 mg (n = 3),0 (0)
same,"Progressive disease, n (%)",[5]; 50 mg (n = 3),1 (33.3)
same,"Stable disease, n (%)",[5]; 50 mg (n = 3),2 (66.7)
same,"Disease control, n (%)",[5]; 50 mg (n = 3),2 (66.7)
same,"Objective response, n (%)",[5]; 50 mg (n = 3),0 (0)
same,"Complete response, n (%)",[5]; 100 mg (n = 3),0 (0)
same,"Partial response, n (%)",[5]; 100 mg (n = 3),0 (0)
same,"Progressive disease, n (%)",[5]; 100 mg (n = 3),1 (33.3)
same,"Stable disease, n (%)",[5]; 100 mg (n = 3),2 (66.7)
same,"Disease control, n (%)",[5]; 100 mg (n = 3),2 (66.7)
same,"Objective response, n (%)",[5]; 100 mg (n = 3),0 (0)
same,"Complete response, n (%)",[5]; 150 mg (n = 3),0 (0)
same,"Partial response, n (%)",[5]; 150 mg (n = 3),0 (0)
same,"Progressive disease, n (%)",[5]; 150 mg (n = 3),1 (33.3)
same,"Stable disease, n (%)",[5]; 150 mg (n = 3),2 (66.7)
same,"Disease control, n (%)",[5]; 150 mg (n = 3),2 (66.7)
same,"Objective response, n (%)",[5]; 150 mg (n = 3),0 (0)
same,"Complete response, n (%)",[5]; 220 mg (n = 3),0 (0)
same,"Partial response, n (%)",[5]; 220 mg (n = 3),1 (33.3)
same,"Progressive disease, n (%)",[5]; 220 mg (n = 3),0 (0)
same,"Stable disease, n (%)",[5]; 220 mg (n = 3),2 (66.7)
same,"Disease control, n (%)",[5]; 220 mg (n = 3),3 (100)
same,"Objective response, n (%)",[5]; 220 mg (n = 3),1 (33.3)
same,"Complete response, n (%)",[5]; 300 mg (n = 6),0 (0)
same,"Partial response, n (%)",[5]; 300 mg (n = 6),0 (0)
same,"Progressive disease, n (%)",[5]; 300 mg (n = 6),4 (66.7)
same,"Stable disease, n (%)",[5]; 300 mg (n = 6),2 (33.3)
same,"Disease control, n (%)",[5]; 300 mg (n = 6),2 (33.3)
same,"Objective response, n (%)",[5]; 300 mg (n = 6),0 (0)
same,"Complete response, n (%)",[5]; 350 mg (n = 3),0 (0)
same,"Partial response, n (%)",[5]; 350 mg (n = 3),1 (33.3)
same,"Progressive disease, n (%)",[5]; 350 mg (n = 3),0 (0)
same,"Stable disease, n (%)",[5]; 350 mg (n = 3),2 (66.7)
same,"Disease control, n (%)",[5]; 350 mg (n = 3),3 (100)
same,"Objective response, n (%)",[5]; 350 mg (n = 3),1 (33.3)
same,"Complete response, n (%)",[5]; 400 mg (n = 3),0 (0)
same,"Partial response, n (%)",[5]; 400 mg (n = 3),0 (0)
same,"Progressive disease, n (%)",[5]; 400 mg (n = 3),0 (0)
same,"Stable disease, n (%)",[5]; 400 mg (n = 3),3 (100)
same,"Disease control, n (%)",[5]; 400 mg (n = 3),3 (100)
same,"Objective response, n (%)",[5]; 400 mg (n = 3),0 (0)
same,duration of maintained PR,"[5]; NSCLC patient, 350-mg group, no EGFR-sensitive mutations",19 cycles
same,"Complete response, n (%)",[5]; Total (n = 24),0 (0)
same,"Partial response, n (%)",[5]; Total (n = 24),2 (8.3)
same,"Progressive disease, n (%)",[5]; Total (n = 24),7 (29.2)
same,"Stable disease, n (%)",[5]; Total (n = 24),15 (62.5)
same,"Disease control, n (%)",[5]; Total (n = 24),17 (70.8)
same,"Objective response, n (%)",[5]; Total (n = 24),2 (8.3)
same,cases of PR among five patients with EGFR mutations at baseline,[5]; after cycle one,1
same,cases of SD among five patients with EGFR mutations at baseline,[5]; after cycle one,4
same,"stable disease as best overall response, patients",[5]; all dose levels,15
same,overall disease control rate (DCR),"[5]; all dose levels, 24 evaluable",70.8%
same,fraction metabolized by CYP3A4,CYP3A4,around 85%
same,IC50,[6],0.563 nM
same,IC50,HER2,253 nM
same,IC50,HER4,84 nM
same,IC50,[7],26.6 nM
same,IC50,EGFR (T790M),45.2 nM
